Experimental findings from patent US20200022998A1, “MEDICAL USE OF NOTCH4 OR INHIBITORS THEREOF” (BEIJING INSTITUTE OF GENOMICS, CHINESE ACADEMY OF SCIENCES, priority 2016, published 2020) are described below.

Holding throughout (format): cell-based, human
Experiment [1] relates to umbilical cord blood-derived CD34+ cells. Put plainly: in vitro megakaryocyte lineage differentiation of umbilical cord blood-derived CD34+ cells, flow cytometry. The note with it: 10 μM; for number of mature megakaryocytes (CD41+CD42+) produced, increase vs control group: FIG. 15; for proportion of mature megakaryocyte (CD61+), increase vs control group / proportion of mature megakaryocytes MK (CD41+CD42+) produced, increase vs control group: cells collected at D14, FIG. 14. The method, then:
(1) CD34^+ cells in umbilical cord blood were obtained by Ficoll-Paque PLUS density gradient centrifugation and magnetic bead sorting using CD34 MicroBead Kit. As to the particular steps, please refer to (GE Healthcare Life Sciences, http://www.gelifesciences.com), (Miltenyi Biotec, http://www.miltenyibiotec.com.cn).
(2) Differentiation of umbilical cord blood-derived CD34^+ cells into megakaryocytes: umbilical cord blood-derived CD34^+ cells were counted, and seeded at 1*10^6 cells to 4 ml StemSpan™ SFEM 11+50 ng/ml SCF+50 ng/ml TPO+50 ng/ml IL-6+20 ng/ml IL-3 in a 12-well plate, with 1 ml medium for each well, and four wells in total, to which 10 μM R04929097, 10 μM L-685458, 10 μM DAPT, and the same volume of DMSO as control were added, respectively, and the time was recorded as Day 0. The liquid was changed every 3 days, and the culture condition was 37° C., 5% CO2. After incubation for 6 days, the cell density was high, and the cells in each well were divided into two wells of a 12-well plate, with 2 ml medium for each well. The inhibitors were added at the same concnetrations as described above. The cells were collected at D14, counted, and detected for cell surface markers (CD41, CD42, CD61) by flow cytometer.
As to the collection of umbilical cord blood-derived CD34^+ cells, in vitro megakaryocytic differentiation and detection, please refer to Example 4-1.
A general note: In flow cytometry, cells or beads pass a laser one at a time.

Experiment [2] shares this test system. The experiment can be described thus: megakaryocyte colony forming unit (MK-CFU) experiment, umbilical cord blood-derived CD34+ cells. The note with it: 10 μM; FIG. 16. The method, then: Megakaryocyte colony forming unit (MK-CFU) experiment: at Day 14, the cells resulted from induced differentiation were collected, and 7,500 single cells were seeded to collagen-based MegaCult-C Kit. After incubation for 10-12 days, the cells were stained with anti-CD41 antibody and counted. CD41^+ megakaryocyte colonies were counted.

Experiment [3] relates to iPSCs-derived CD34+ cells. Put plainly: polyploid detection, iPSC-derived CD34+ cells. The note with it: 10 μM; Notch inhibitor added since Day 5; DMSO about 18%; FIG. 17. The method, then: iPSC-derived CD34^+ cells (prepared by the method as described in Example 3-2) and umbilical cord blood-derived CD34^+ cells were seeded at 1*10^6 cells per well to 4 ml StemSpan™ SFEM 11+50 ng/ml SCF+50 ng/ml TPO+50 ng/ml IL-6+20 ng/ml IL-3, in a 12-well plate, with 1 ml medium for each well, and 3 wells in total for each cell line, […] The liquid was changed every 3 days, and the culture condition was 37° C., 5% CO2. After iPSC-derived CD34^+ cells were incubated for 6 days, and umbilical cord blood-derived CD34^+ cells were incubated for 9 days, the following experiment was carried out.
(§1) Cells were labeled with CD61-FITC flow cytometric antibody at 4° C. for 30 min. The cells were washed with PBS once, and fixed with 70% ethanol at 4° C. overnight. At the second day, the cells were washed with PBS once. After centriguation, 1 ml PBE (PBS containing 2% serum) +100 μg/ml RNase A +50 μg/ml Propidium Iodide, was added, and incubation was carried out in dark at room temperature for 30 min. The cells were washed with PBS once, and the number of cells (≥8N) in CD61^+ cell population was determined by flow cytometry.

In experiment [4] the test system is umbilical cord blood-derived CD34+ cells. The experiment can be described thus: polyploid detection, umbilical cord blood-derived CD34+ cells. Conditions: 10 μM; DMSO about 16%; FIG. 18. On the procedure:
(§2) iPSC-derived CD34^+ cells (prepared by the method as described in Example 3-2) and umbilical cord blood-derived CD34^+ cells were seeded at 1*10^6 cells per well to 4 ml StemSpan™ SFEM 11+50 ng/ml SCF+50 ng/ml TPO+50 ng/ml IL-6+20 ng/ml IL-3, in a 12-well plate, with 1 ml medium for each well, and 3 wells in total for each cell line, to which 10 μM RO4929097, 10 μM DAPT, and the same volume of DMSO as control, were added, respectively, and the time was recorded as Day 0. The liquid was changed every 3 days, and the culture condition was 37° C., 5% CO2. After iPSC-derived CD34^+ cells were incubated for 6 days, and umbilical cord blood-derived CD34^+ cells were incubated for 9 days, the following experiment was carried out.
as §1

The test system is the same in experiment [5]. Put plainly: proplatelet formation, umbilical cord blood-derived CD34+ cells. The note with it: 10 μM; DMSO about 44%; FIG. 20D. On the procedure: as §2
Proplatelet formation of MKs referred to mature megakaryocytes, which extended long and branched filaments and cytoplasmic protrusions.

The structures appear in SMILES notation.

For the compound `C[C@H](NC(=O)Cc1cc(F)cc(F)c1)C(=O)N[C@H](C(=O)OC(C)(C)C)c1ccccc1` [DAPT], in experiment [1], the “number of mature megakaryocytes (CD41+CD42+) produced, increase vs control group” value is 2.9 folds; the “proportion of mature megakaryocyte (CD61+), increase vs control group” value amounted to 2.5 folds; the “proportion of mature megakaryocytes MK (CD41+CD42+) produced, increase vs control group” value amounted to 4.1 folds. The “ability of megakaryocyte progenitor cells to form mature MK colony (CFU-MK), increase vs control group” value in experiment [2] stood at 2.8 folds. The “proportion of polyploid megakaryocytes (≥8N) in CD61+ megakaryocytes” value (from here on “proportion of polyploid megakaryocytes”) in experiment [3] is given as approximately 21%. In experiment [4], the “proportion of polyploid megakaryocytes” value is approximately 12%. For the same compound, the “proportion of proplatelet-bearing MKs in 100 differentiated cells” value in experiment [5] is approximately 42%.
Turning to `CC(C)(C(=O)NCC(F)(F)C(F)(F)F)C(=O)N[C@@H]1C(=O)Nc2ccccc2-c2ccccc21` [RO4929097], in experiment [1], the “number of mature megakaryocytes (CD41+CD42+) produced, increase vs control group” value is 2.9 folds; the “proportion of mature megakaryocyte (CD61+), increase vs control group” value is given as 3.1 folds; the “proportion of mature megakaryocytes MK (CD41+CD42+) produced, increase vs control group” value came to 4.5 folds. The “ability of megakaryocyte progenitor cells to form mature MK colony (CFU-MK), increase vs control group” value in experiment [2] is 2.8 folds. Also, the “proportion of polyploid megakaryocytes” value in experiment [3] is on record as “about 17%”. Besides, the “proportion of polyploid megakaryocytes” value in experiment [4] was “about 15%”. For the same compound, the “proportion of proplatelet-bearing MKs in 100 differentiated cells” value in experiment [5] is recorded as “about 40%”.
